Series [1] concerns Aspergillus niger ATCC 16404. As to the kind of experiment: MIC by broth microdilution (RPMI 1640). As to conditions: ATCC16404. In kind it is cell-based. The method, then:
(§1) We have tested the antimicrobial activity in vitro of over 100 tris(indolyl)methane derivatives against 16 strains of Gram-positive, Gram-negative bacteria and fungi including either sensitive or drug-resistant strains from ATCC, as well as resistant clinical isolates from the culture collection of the Laboratory for Control of Hospital Infections (Sechenov University, Moscow, Russia). The minimum inhibitory concentrations (MICs) were determined by the microdilution method in a cation-adjusted Müller–Hinton medium for bacteria and in a liquid culture medium RPMI 1640 with L-glutamine without sodium bicarbonate for fungi in accordance with the requirements of the Institute of Clinical and Laboratory Standards (CLSI/NCCLS). […] As a rule, their activity against Gram-negative bacteria was usually not that high. […] For comparison, the antimicrobial activity of prototype 4 is shown. The antibacterial antibiotic levofloxacin and the antifungal amphotericin B were used as reference drugs (Table 1).
(§2) The synthesis of compounds and the scheme of their preparation and purification, as well as physicochemical characteristics, were described earlier. To evaluate the biological activity in vitro, the compounds were dissolved in DMSO at a concentration of 2.0–6.4 mg/mL, followed by preparation of two-fold dilutions in the same solvent, if necessary. The solutions were further diluted in an aqueous medium for the final concentration of DMSO not to exceed 1%, and the concentration of the compounds ranged from 64.0 to 0.13 μg/mL. To study compounds in vivo, solutions for intravenous administration in 5% glucose solution were prepared. Solutions were sterilized by filtration through 0.22 µm filters (Millipore, Burlington, MA, USA).
(§3) Strains of Gram-positive, Gram-negative bacteria and fungi including sensitive or drug-resistant strains from ATCC, as well as resistant clinical isolates from the culture collection of the Laboratory for Control of Hospital Infections (Sechenov University, Moscow, Russia), were used. Clinical isolates of Gram-positive bacteria Staphylococcus aureus 5 (MRSA), Staphylococcus aureus 10, Staphylococcus aureus 100KC (MRSA), Staphylococcus epidermidis 533, Staphylococcus haemoliticus 585 and Enterococcus faecium 569, as well as collection cultures of Gram-positive bacteria Staphylococcus aureus ATCC 700699, Staphylococcus aureus ATCC 25923, Staphylococcus aureus ATCC 3798 and collection cultures of Gram-negative bacteria Escherichia coli ATCC 25922, Klebsiella pneumoniae ATCC 13883, Proteus vulgaris ATCC 13315, Salmonella cholerasuis ATCC 14028, Pseudomonas aeruginosa ATCC 27853 and collection cultures of the yeast Candida albicans ATCC 14053 and the fungi Aspergillus niger ATCC 16404 were used. To grow the microorganisms, we used Trypticase Soy Agar (TSA, Sigma-Aldrich Co., Burlington, MA, USA). Trypticase Soy Agar, BBL, was used for cultivation of Staphylococcus spp. and E. coli. For cultivation of Enterococcus spp. and P. aeruginosa we used a ready-made dry medium Columbia Agar Base, BBL. The media were sterilized by autoclaving at 121 °C for 15 min. Yeast culture C. albicans was grown on Sabouraud agar (peptone—10 g, glucose—40 g, agar—20 g, distilled water—1 L, pH 6.0), and filamentous fungi A. niger was grown on potato–glucose agar (potatoes—200 g, glucose—20 g, agar—15 g, distilled water—1 L, pH 5.5–6.0).
(§4) To determine the antibacterial effect, a liquid Müller–Hinton medium (Becton, Dickinson and Company, Cockeysville, MD, USA) was used; to determine the effect of compounds on fungi we used RPMI 1640 medium with L-glutamine, without sodium bicarbonate, which was prepared from a dry medium (ICN Biomedicals Inc., Costa Mesa, CA, USA) by dilution in distilled water, subsequent buffering with 0.165 M of morpholinepropanesulfonic acid (MOPS, Acros Organics B.V.B.A., Morris Plains, NJ, USA) and adjusting the pH of the medium to 7.0 by adding 1 N of NaOH solution. […]
For orientation: Dilution methods test growth across graded concentrations, often in twofold steps.

In series [2] the test system is Candida albicans ATCC 14053. The experiment in a line: MIC by broth microdilution (RPMI 1640). In kind it is cell-based. The note with it: ATCC14053. The method, then:
as §1, §2, §3, §4

Series [3] is described as follows: Cytotoxic activity, MTT assay. In kind it is cell-based, human. As to conditions: human, HPF-hTERT. The method, then:
(§5) The cytotoxic activity of the compounds was evaluated on the healthy donor (postnatal) human fibroblasts immortalized by transfection of the hTERT gene of the catalytic component of telomerase (hereinafter HPF-hTERT) that were obtained from N.N. Blokhin Russian Cancer Research Center. HFC-hTERT cells were cultured in Dulbecco’s modified medium (DMEM) containing 2 mM of L-glutamine, 10% fetal calf serum, 100 U/mL of penicillin and 100 μg/mL of streptomycin. Incubation was performed in a humidified atmosphere of 5% CO2 at 37 °C. In the experiment, we used cells in the logarithmic growth phase. To study the cytotoxicity of compounds, 190 μL of cell suspension (~2 thousand cells per well) was added to the wells of 96-well plates and incubated for 16 h. On the day of the experiment, serial dilutions of the test compounds were prepared in DMSO (stock solution—10 mM in 100% DMSO). Further dilutions were conducted in a nutrient medium. The final concentrations of compounds in the experiment were in a concentration range from 0.0025 to 50 μM. The final concentration of DMSO was 1% or less. Each concentration was presented in 3 repetitions. […] The cells were incubated with the test compounds for 72 h. After the end of incubation, 20 μL of MTT solution in growth medium (5 mg/mL) was added to the wells. The cells were incubated for 2 h until a purple color developed, after which the culture medium was removed. DMSO was added to the wells, and the sediment was suspended. Optical density was measured with a Thermo Scientific Multiscan FC spectrophotometer at 570 nm. The values of optical density in wells without addition of test compounds (control) were taken as 100% cell survival. The percentage of survival of cells incubated with the test compounds was calculated by dividing the optical density in the corresponding well (average of 3 independent measurements) by the optical density in the control. The concentration of drugs causing 50% cell death (IC50) was evaluated and expressed in μg/mL.
(In general: Formazan colour is commonly taken as a measure of viable cells.)

The next series has as its system HPF-hTERT. As to the kind of experiment: Cytotoxic activity, MTT assay. In kind it is cell-based, human. The note with it: 72 h. The procedure:
as §5

This note sets out measurements from publication PMC8878324, “Evaluation of New Antimicrobial Agents Based on tris(1H-Indol-3-yl)methylium Salts: Activity, Toxicity, Suppression of Experimental Sepsis in Mice” (Pharmaceuticals, 2022).

Some results are limits rather than exact numbers.

In general, MIC refers to the lowest concentration found to suppress growth. The term IC50 denotes the concentration needed to halve the response being measured. A higher IC50 goes with weaker potency. In the case of `OCCCCCn1cc([C+](c2cn(CCCCCO)c3ccccc23)c2cn(CCCCCO)c3ccccc23)c2ccccc21.[Cl-]` [Compound 1, tris(1-(5-Hydroxypentyl)-1H-indol-3-yl) methylium chloride], the minimal inhibitory concentration (MIC) in series [1] and in series [2] was more than 64 µg/mL throughout. In addition, half-maximal inhibition in series [3] (IC50 at 72 h) required 12.6 µg/mL. In addition, in the series with HPF-hTERT, the “Cytotoxic Activity IC50” value worked out at 13 µg/mL.
For the compound `CCCn1cc([C+](c2cn(CCC)c3ccccc23)c2cn(C3=C(N(C)C)C(=O)NC3=O)c3ccccc23)c2ccccc21` [Compound 3, 1-(4-Dimethylamino-2,5-dioxo-2,5-dihydro-1H-pyrrol-3-yl) -1H-indol-3-yl) bis(1-propyl-1H-indol-3-yl) methylium chloride], the MIC in series [1] and in series [2] was 2 µg/mL each time. Further, the IC50 at 72 h in series [3] was 0.57 µg/mL. Also, the “Cytotoxic Activity IC50” value with HPF-hTERT stood at 0.6 µg/mL.
Turning to `CCCn1cc([C+](c2cn(CCC)c3ccccc23)c2cn(C3=C(N)C(=O)NC3=O)c3ccccc23)c2ccccc21.[Cl-]` [Compound 2, (1-(4-Amino-2,5-dioxo-2,5-dihydro-1H-pyrrol-3-yl)-1H-indol-3-yl)bis(1-propyl-1H-indol-3-yl) methylium chloride], the values for the MIC in series [1] and in series [2] were 8 µg/mL and 12 µg/mL, respectively. For the same compound, the IC50 at 72 h in series [3] is 2.77 µg/mL. Moreover, the “Cytotoxic Activity IC50” value in the series with HPF-hTERT came out at 2.8 µg/mL.
In turn, `C[C@H]1COc2c(N3CCN(C)CC3)c(F)cc3c(=O)c(C(=O)O)cn1c23` [Levofloxacin, levofloxacin, reference compound] yielded a half-inhibitory concentration (IC50) at 72 h in series [3] of more than 50 µg/mL.
